# In patent US12552767B2, “3-heteroaryl pyrrolidine and piperidine orexin receptor agonists” (Merck Sharp & Dohme LLC, priority 2020, dated 2026):
# Molecular target: T1, human OX2R (Homo sapiens, UniProt O43614)
# T1 construct: expressed in transfected cells; host or cells: CHO (Chinese hamster ovary) cells, grown under G418 selection
# T1 sequence (O43614 1-444): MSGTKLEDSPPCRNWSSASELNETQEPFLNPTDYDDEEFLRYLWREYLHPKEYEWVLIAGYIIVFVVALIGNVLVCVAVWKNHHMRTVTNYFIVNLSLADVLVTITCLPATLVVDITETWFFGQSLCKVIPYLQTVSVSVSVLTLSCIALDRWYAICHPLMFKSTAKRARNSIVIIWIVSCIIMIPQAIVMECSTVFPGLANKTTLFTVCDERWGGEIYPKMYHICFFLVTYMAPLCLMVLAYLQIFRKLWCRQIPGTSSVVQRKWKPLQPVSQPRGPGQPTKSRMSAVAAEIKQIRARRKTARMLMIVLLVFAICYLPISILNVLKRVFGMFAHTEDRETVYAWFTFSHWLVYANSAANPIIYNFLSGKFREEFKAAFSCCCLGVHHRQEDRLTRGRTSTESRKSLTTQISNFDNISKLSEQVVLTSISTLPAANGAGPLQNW
# Experiment: IP-One (IPOne) orexin receptor agonist assay in CHO cells expressing human OX2R
# Format: cell-based
# Conditions: for EC50: CHO cells expressing human OX2R, IP-One IP-1 detection, 2 hours incubation, four parameter logistic fit, read-out: OX2R Potency, EC50; for % of reference agonist maximal effect: human OX2R, percentage of sample raw value/mean max effect (reference compound at 1 uM with 100% activity)
# Outline: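 CHO cells stably expressing human OX2R were stimulated with compound (10-point ½-log dilutions) for 2 h at 37 °C. IP-1 accumulation was read by HTRF (IP-One, 665/620 nm). EC50 from a four-parameter fit; % effect relative to 1 μM reference agonist control.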
SMILES,EC50 [µM],% of reference agonist maximal effect [%]
"COC(=O)N1CCC[C@H](c2[nH]ncc2C)[C@@H]1CO[C@H]1CC[C@@H](c2ccccc2)CC1 (relative stereo) [Example 23, methyl (CIS)-3-(4-methyl-1H-pyrazol-5-yl)-2-((((CIS)-4-phenylcyclohexyl)oxy)methyl)piperidine-1-carboxylate]",0.211,98.6
"CCNC(=O)N1CCC[C@H](c2ccnn2C)[C@@H]1CO[C@H]1CC[C@@H](c2ccccc2)CC1 (relative stereo) [Example 22, (CIS)-N-ethyl-3-(1-methyl-1H-pyrazol-5-yl)-2-((((CIS)-4-phenylcyclohexyl)oxy)methyl)piperidine-1-carboxamide]",6,83.7
"CCNC(=O)N1CCC[C@@H](c2ccn[nH]2)[C@H]1CO[C@H]1CC[C@@H](C(C)C)CC1 (single isomer, unassigned) [Example 5]",3.19,99.6
"Cc1c[nH]nc1[C@H]1CCCN(C(=O)OCC(F)F)[C@H]1CO[C@H]1CC[C@@H](c2cccc(F)c2)CC1 (relative stereo) [Example 16, 2,2-difluoroethyl (CIS)-2-((((CIS)-4-(3-fluorophenyl)cyclohexyl)oxy)methyl)-3-(4-methyl-1H-pyrazol-3-yl)piperidine-1-carboxylate]",0.126,99.9
"O=C(OCC(F)F)N1CCCC(c2ccn[nH]2)C1CO[C@H]1CC[C@@H](c2c(F)ccc(F)c2F)CC1 (stereo partly drawn) [Example 35, 2,2-Difluoroethyl 3-(1H-pyrazol-5-yl)-2-((((CIS)-4-(2,3,6-trifluorophenyl)cyclohexyl)oxy-)methyl)piperidine-1-carboxylate]",0.542,97.9
"CC(C)NC(=O)N1CCC[C@H](c2cc[nH]n2)[C@@H]1CO[C@H]1CC[C@@H](C(C)C)CC1 (relative stereo) [Example 121, (CIS)-N-isopropyl-2-((((CIS)-4-isopropylcyclohexyl)oxy)methyl)-3-(1H-pyrazol-3-yl)piperidine-1-carboxamide]",1.54,96.1
"CCC(=O)N1CCC[C@H](c2cc[nH]n2)[C@@H]1CO[C@H]1CC[C@@H](C(C)C)CC1 (relative stereo) [Example 82, 1-((CIS)-2-((((CIS)-4-isopropylcyclohexyl)oxy)methyl)-3-(1H-pyrazol-3-yl)piperidin-1-yl)propan-1-one]",5.74,98.1
"COC(=O)N1CCC[C@@H](c2n[nH]cc2C#N)[C@H]1CO[C@H]1CC[C@@H](c2ccccc2)CC1 (single isomer, unassigned) [Example 52]",> 10,0
"COC(=O)N1CCCC(c2nc(O)sc2Cl)C1COC1CCC(c2ccccc2)CC1 (single isomer, unassigned) [Example 68, Methyl 3-(5-chloro-2-hydroxythiazol-4-yl)-2-(((4-phenylcyclohexyl)oxy)methyl)piperidine-1-carboxylate]",6.98,27.6
"CN1C[C@H](COC(=O)N2CCC[C@H](c3cc[nH]n3)[C@@H]2COC2CCC(c3ccccc3)CC2)OCC1=O (stereo partly drawn) [Example 94, ((R)-4-methyl-5-oxomorpholin-2-yl)methyl (CIS)-2-((((CIS)-4-phenylcyclohexyl)oxy)methyl)-3-(1H-pyrazol-3-yl)piperidine-1-carboxylate]",6.64,93.5
"COC(=O)N1CCC[C@H](c2n[nH]cc2Cl)[C@@H]1CO[C@H]1CC[C@@H](c2ccc(Cl)cc2)CC1 (racemic) [Example 48, Methyl cis-3-(4-chloro-1H-pyrazol-3-yl)-2-((((CIS)-4-(4-chlorophenyl)cyclohexyl)-oxy)methyl)piperidine-1-carboxylate]",0.922,97.6
"C[C@@H]1C[C@H]1C(=O)N1CCC[C@H](c2cc[nH]n2)[C@@H]1CO[C@H]1CC[C@@H](c2ccccc2)CC1 (relative stereo) [Example 70, ((TRANS)-2-methylcyclopropyl)((CIS)-2-((((CIS)-4-phenylcyclohexyl)oxy)methyl)-3-(1H-pyrazol-3-yl)piperidin-1-yl)methanone]",0.292,100.0
"C#CCCC(=O)N1CCC[C@H](c2cc[nH]n2)[C@@H]1CO[C@H]1CC[C@@H](C(C)C)CC1 (relative stereo) [Example 85, 1-((CIS)-2-((((CIS)-4-isopropylcyclohexyl)oxy)methyl)-3-(1H-pyrazol-3-yl)piperidin-1-yl)pent-4-yn-1-one]",7.58,87
"O=C(OC1CCCC1)N1CCC[C@H](c2cc[nH]n2)[C@@H]1CO[C@H]1CC[C@@H](c2ccccc2)CC1 (relative stereo) [Example 117, cyclopentyl (CIS)-2-((((CIS)-4-phenylcyclohexyl)oxy)methyl)-3-(1H-pyrazol-3-yl)piperidine-1-carboxylate]",8,47.3
"COC(=O)N1CCC[C@H](c2n[nH]cc2C)[C@@H]1COC1CCN(c2ncccn2)CC1 (relative stereo) [Example 6, Methyl (CIS)-3-(4-methyl-1H-pyrazol-3-yl)-2-(((1-(pyrimidin-2-yl)piperidin-4-yl)oxy)methyl)piperidine-1-carboxylate]",1.27,96.6
"O=C(C1CC1(F)F)N1CCC[C@H](c2cc[nH]n2)[C@@H]1CO[C@H]1CC[C@@H](c2ccccc2)CC1 (relative stereo) [Example 92, (2,2-difluorocyclopropyl)((CIS)-2-((((CIS)-4-phenylcyclohexyl)oxy)methyl)-3-(1H-pyrazol-3-yl)piperidin-1-yl)methanone]",6.9,88.6
"CCNC(=O)N1CCC[C@@H](c2cc[nH]n2)[C@H]1CO[C@H]1CC[C@@H](c2ccccc2)CC1 [Example 19, (2S,3R)-N-ethyl-2-((((CIS)-4-phenylcyclohexyl)oxy)methyl)-3-(1H-pyrazol-3-yl)piperidine-1-carboxamide]",4.8,63.1
"CC(=O)COC(=O)N1CCC[C@H](c2cc[nH]n2)[C@@H]1CO[C@H]1CC[C@@H](c2ccccc2)CC1 (relative stereo) [Example 97, 2-oxopropyl (CIS)-2-((((CIS)-4-phenylcyclohexyl)oxy)methyl)-3-(1H-pyrazol-3-yl)piperidine-1-carboxylate]",0.892,99.1
"CC(OC(=O)N1CCC[C@H](c2cc[nH]n2)[C@@H]1CO[C@H]1CC[C@@H](c2ccccc2)CC1)C(F)F (relative stereo) [Example 99, 1,1-difluoropropan-2-yl (CIS)-2-((((CIS)-4-phenylcyclohexyl)oxy)methyl)-3-(1H-pyrazol-3-yl)piperidine-1-carboxylate]",1.82,88.9
"COC(C)(C)C(=O)N1CCC[C@H](c2cc[nH]n2)[C@@H]1CO[C@H]1CC[C@@H](c2ccccc2)CC1 (relative stereo) [Example 87, 2-methoxy-2-methyl-1-((CIS)-2-((((CIS)-4-phenylcyclohexyl)oxy)methyl)-3-(1H-pyrazol-3-yl)piperidin-1-yl)propan-1-one]",8.81,78.7
"COC(=O)N1[C@H](C)CC(c2ccn[nH]2)[C@@H]1CO[C@H]1CC[C@@H](c2ccccc2)CC1 (stereo partly drawn) [Example 37, Methyl (2R,5R)-5-methyl-2-((((CIS)-4-phenylcyclohexyl)oxy)methyl)-3-(1H-pyrazol-5-yl)pyrrolidine-1-carboxylate]",5.11,85.3
"O=C(NCC1CCC1)N1CCC[C@H](c2cc[nH]n2)[C@@H]1CO[C@H]1CC[C@@H](c2ccccc2)CC1 (relative stereo) [Example 125, (CIS)-N-(cyclobutylmethyl)-2-((((CIS)-4-phenylcyclohexyl)oxy)methyl)-3-(1H-pyrazol-3-yl)piperidine-1-carboxamide]",0.0224,99.1
"Cc1cnc(COC(=O)N2CCC[C@H](c3cc[nH]n3)[C@@H]2CO[C@H]2CC[C@@H](c3ccccc3)CC2)o1 (relative stereo) [Example 109, (5-methyloxazol-2-yl)methyl (CIS)-2-((((CIS)-4-phenylcyclohexyl)oxy)methyl)-3-(1H-pyrazol-3-yl)piperidine-1-carboxylate]",5.56,78.6
"CCc1c[nH]nc1[C@@H]1CCCN(C(=O)OC)[C@@H]1CO[C@H]1CC[C@@H](c2ccccc2)CC1 [Example 44, (2S,3R)-3-(4-ethyl-1H-pyrazol-3-yl)-2-((((CIS)-4-phenylcyclohexyl)oxy)methyl)piperidine-1-carboxylate]",> 10,9.5
